Some test systems named below: DU-145 prostate; HCC-2998 colon; LOX IMVI melanoma; MCF7 breast; OVCAR-4 ovarian; OVCAR-5 ovarian; OVCAR-8 ovarian; PC-3 prostate; SF-539 CNS; SK-MEL-2 melanoma.
Holding throughout (test): NCI anticancer screen, dose series, 48 h

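The compound was tested at five concentrations on cells cultured in 96-well plates, with a 48-hour exposure period. GI50 = concentration required for 50% inhibition of growth. TGI: concentration producing complete growth inhibition.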

Results on 14 molecules are retold here after PubChem BioAssay (NCI).

`CN(C)CC(O)c1ccc(Cl)c2ccccc12` (centres undefined): the TGI in the test with DU-145 prostate was over 100 µM; with HCC-2998 colon, 29.9 µM; in the test with LOX IMVI melanoma, over 66.6 µM; in the test on MCF7 breast, over 81.8 µM; in the test with OVCAR-4 ovarian, over 100 µM; with OVCAR-5 ovarian, over 100 µM. Further, the TGI in the test on OVCAR-8 ovarian was over 100 µM; in the test with PC-3 prostate it was over 72.3 µM; with SF-539 CNS, over 100 µM; in the test on SK-MEL-2 melanoma it was 39.7 µM.
Turning to `CCN(CCCOc1ccccc1)CCN(CC)CCCOc1ccccc1`, the TGI came out at 23.9 µM in the test with DU-145 prostate; 48.4 µM in the test on HCC-2998 colon; 27.9 µM in the test with LOX IMVI melanoma; 57.3 µM in the test with MCF7 breast; 37.5 µM in the test with OVCAR-4 ovarian; 38.9 µM with OVCAR-5 ovarian. The TGI with OVCAR-8 ovarian came to 38 µM; in the test on PC-3 prostate, 5.14 µM; with SF-539 CNS it was 24.7 µM; with SK-MEL-2 melanoma, 32.3 µM.
For `COC1CC(N)(c2ccccc2)C(O)C(C)O1` (centres undefined), the TGI in the test on DU-145 prostate, with HCC-2998 colon, in the test on LOX IMVI melanoma, in the test with MCF7 breast, with OVCAR-4 ovarian and in the test on OVCAR-5 ovarian was over 100 µM in each case. Also, the TGI in the test on OVCAR-8 ovarian, in the test on PC-3 prostate, with SF-539 CNS and in the test on SK-MEL-2 melanoma was over 100 µM in each case.
Regarding `Cc1ccc(Nc2nc3[nH]ccc3c(=O)[nH]2)cc1`, the TGI with DU-145 prostate, in the test with HCC-2998 colon, in the test on LOX IMVI melanoma, with MCF7 breast, with OVCAR-4 ovarian and with OVCAR-5 ovarian was over 100 µM in each case. For the same molecule, the TGI in the test with OVCAR-8 ovarian, in the test on PC-3 prostate, in the test with SF-539 CNS and with SK-MEL-2 melanoma was over 100 µM throughout.
Turning to `C=CCn1c(=O)c(C)cn(COCCO)c1=O`, the TGI with DU-145 prostate, in the test on HCC-2998 colon, in the test on LOX IMVI melanoma, in the test with MCF7 breast, with OVCAR-5 ovarian and in the test on OVCAR-8 ovarian was over 100 µM each time. The TGI with PC-3 prostate, in the test with SF-539 CNS and in the test with SK-MEL-2 melanoma was over 100 µM in each case.
`O=S1(=O)c2ccccc2Oc2ccc(C(/C=N/O)=N/O)cc21`: the TGI in the test with DU-145 prostate was 53 µM; in the test on LOX IMVI melanoma it was 41.5 µM; in the test on MCF7 breast, 92.5 µM; with OVCAR-4 ovarian it was over 100 µM; in the test with OVCAR-5 ovarian it was over 100 µM; in the test on OVCAR-8 ovarian it was 47.7 µM. Moreover, the figures for the TGI in the test with PC-3 prostate, in the test with SF-539 CNS and in the test on SK-MEL-2 melanoma were over 100 µM, 84.8 µM and 70.7 µM, respectively.
For the molecule `CCCCN(CCCC)Cc1cc(Nc2ccnc3cc(Cl)ccc23)ccc1O`, the GI50 with DU-145 prostate was over 100 µM; with HCC-2998 colon, 42.4 µM; in the test on LOX IMVI melanoma, 2.81 µM; in the test on MCF7 breast it was 8.91 µM; with OVCAR-4 ovarian, over 100 µM; in the test on OVCAR-8 ovarian it was 9.03 µM. For the same molecule, the GI50 in the test with PC-3 prostate was 5.73 µM; in the test on SK-MEL-2 melanoma, 45.1 µM. The TGI with DU-145 prostate, in the test on HCC-2998 colon, in the test on LOX IMVI melanoma, with MCF7 breast, in the test on OVCAR-4 ovarian and with OVCAR-8 ovarian was over 100 µM throughout. For the same molecule, the TGI with PC-3 prostate and in the test with SK-MEL-2 melanoma was over 100 µM each time.
For the molecule `c1ccc(/C(=N/Nc2nc3ccccc3s2)C2CCCCC2)nc1`, the TGI came out at 34.2 µM in the test on DU-145 prostate; 0.0519 µM with HCC-2998 colon; 54.3 µM in the test with LOX IMVI melanoma; 6.01 µM with MCF7 breast; 22.3 µM in the test on OVCAR-4 ovarian; 14.4 µM with OVCAR-5 ovarian. The TGI in the test on OVCAR-8 ovarian worked out at 14.3 µM; in the test on PC-3 prostate it was 24.3 µM; in the test with SF-539 CNS it was 27.5 µM; in the test on SK-MEL-2 melanoma it was 32.3 µM.
Take `COC(=O)C1(NC(=O)C(CC(=O)OCc2ccccc2)NC(=O)OCc2ccccc2)CCCCCC1` (centres undefined): the TGI in the test with DU-145 prostate is over 100 µM; in the test on LOX IMVI melanoma it was 66 µM; in the test with MCF7 breast it was over 100 µM; in the test on OVCAR-4 ovarian, 43.8 µM; in the test on OVCAR-5 ovarian, over 100 µM; in the test on OVCAR-8 ovarian, 90.5 µM. Moreover, the TGI in the test on PC-3 prostate was over 100 µM; with SF-539 CNS, 49.2 µM.
`COc1cc(C2c3c(ccc4ccccc34)C(=O)C3CCC(=O)N32)cc(OC)c1OC` (centres undefined): the TGI in the test on DU-145 prostate, with MCF7 breast, with OVCAR-4 ovarian, in the test with OVCAR-5 ovarian, in the test on OVCAR-8 ovarian and with PC-3 prostate was over 50 µM each time. Besides, the TGI in the test with SF-539 CNS and with SK-MEL-2 melanoma was over 50 µM throughout.
Take `O=C(O)CC(Cc1ccccc1Cl)C(=O)O` (centres undefined): the TGI in the test on DU-145 prostate, with HCC-2998 colon, in the test with LOX IMVI melanoma, in the test with MCF7 breast, in the test with OVCAR-4 ovarian and with OVCAR-5 ovarian was over 100 µM in each case. For the same molecule, the TGI with OVCAR-8 ovarian, with PC-3 prostate and in the test on SK-MEL-2 melanoma was over 100 µM in each case.
As for `CC(=O)NC1C(OCc2ccccc2)OC(CO)C(O)C1OCC(=O)N1CCCC1C(=O)N[C@@H](CCC(=O)NCCCCNc1c2ccccc2nc2cccc([N+](=O)[O-])c12)C(N)=O` (some centres undefined), the TGI was over 100 µM with DU-145 prostate; 52.4 µM with HCC-2998 colon; 53.8 µM in the test on MCF7 breast; over 100 µM in the test with OVCAR-4 ovarian; 88.5 µM in the test on OVCAR-5 ovarian; over 100 µM in the test on OVCAR-8 ovarian. Also, the TGI was 60.3 µM in the test on PC-3 prostate, over 100 µM in the test with SF-539 CNS and 32.7 µM in the test on SK-MEL-2 melanoma.
With `COc1ccc(N2CC(=O)N(C(=O)COc3ccc(OCC(=O)N4C(=O)CN(c5ccc(OC)cc5)C4=S)cc3)C2=S)cc1`, the TGI with DU-145 prostate, with HCC-2998 colon, in the test on MCF7 breast, in the test on OVCAR-4 ovarian, with OVCAR-5 ovarian and in the test with PC-3 prostate was over 100 µM throughout. Further, the TGI with SK-MEL-2 melanoma is over 100 µM.
Regarding `CCO/C(=N/S(=O)(=O)C(F)(F)F)N(C(C)C)C(C)C`, the TGI with DU-145 prostate, with LOX IMVI melanoma, in the test with MCF7 breast, with OVCAR-4 ovarian, with OVCAR-5 ovarian and in the test on OVCAR-8 ovarian was over 100 µM in each case. For the same molecule, the TGI with PC-3 prostate, in the test with SF-539 CNS and in the test with SK-MEL-2 melanoma was over 100 µM in each case.
